Assays:
[1] = test system: NCI/ADR-RES; assay: cells; type: functional; settings: Homo sapiens, time 48 hrs
Description: Cytostatic activity against human NCI/ADR-RES cells assessed as total growth inhibition measured after 48 hrs by sulforhodamine B assay

[2] = test system: MDA-MB-231; assay: cells; settings: Homo sapiens, MDA-MB-231, 48 h, read-out: LC50
Description: Cytotoxicity activity against human MDA-MB-231 cells assessed as reduction in cell growth measured after 48 hrs by sulforhodamine B assay

[3] = test system: EKVX; assay: cells; type: functional; settings: Homo sapiens, time 48 hrs
Description: Growth inhibition of human EKVX cells measured after 48 hrs by sulforhodamine B assay

[4] = test system: SK-OV-3; assay: cells; type: functional; settings: Homo sapiens, time 48 hrs
Description: Cytostatic activity against human SK-OV-3 cells assessed as total growth inhibition measured after 48 hrs by sulforhodamine B assay

[5] = test system: KM12; assay: cells; settings: Homo sapiens, KM12, 48 h, read-out: LC50
Description: Cytotoxicity activity against human KM12 cells assessed as reduction in cell growth measured after 48 hrs by sulforhodamine B assay

[6] = test system: Malme-3M; assay: cells; type: functional; settings: Homo sapiens, time 48 hrs
Description: Cytostatic activity against human Malme-3M cells assessed as total growth inhibition measured after 48 hrs by sulforhodamine B assay

[7] = test system: ACHN; assay: cells; type: functional; settings: Homo sapiens, time 48 hrs
Description: Cytostatic activity against human ACHN cells assessed as total growth inhibition measured after 48 hrs by sulforhodamine B assay

[8] = test system: COLO 205; assay: cells; type: functional; settings: Homo sapiens, time 48 hrs
Description: Cytostatic activity against human COLO 205 cells assessed as total growth inhibition measured after 48 hrs by sulforhodamine B assay

[9] = test system: HOP-62; assay: cells; settings: Homo sapiens, HOP-62, 48 h, read-out: LC50
Description: Cytotoxicity activity against human HOP-62 cells assessed as reduction in cell growth measured after 48 hrs by sulforhodamine B assay

[10] = test system: A498; assay: cells; settings: Homo sapiens, A498, 48 h, read-out: LC50
Description: Cytotoxicity activity against human A498 cells assessed as reduction in cell growth measured after 48 hrs by sulforhodamine B assay

[11] = test system: SK-MEL-2; assay: cells; settings: Homo sapiens, SK-MEL-2, 48 h, read-out: LC50
Description: Cytotoxicity activity against human SK-MEL-2 cells assessed as reduction in cell growth measured after 48 hrs by sulforhodamine B assay

[12] = test system: TK-10; assay: cells; settings: Homo sapiens, TK-10, 48 h, read-out: LC50
Description: Cytotoxicity activity against human TK-10 cells assessed as reduction in cell growth measured after 48 hrs by sulforhodamine B assay

[13] = test system: OVCAR-5; assay: cells; type: functional; settings: Homo sapiens, time 48 hrs
Description: Cytostatic activity against human OVCAR-5 cells assessed as total growth inhibition measured after 48 hrs by sulforhodamine B assay

[14] = test system: HT-29; assay: cells; type: functional; settings: Homo sapiens, time 48 hrs
Description: Growth inhibition of human HT-29 cells measured after 48 hrs by sulforhodamine B assay

[15] = test system: LOX IMVI; assay: cells; type: functional; settings: Homo sapiens, time 48 hrs
Description: Growth inhibition of human LOX IMVI cells measured after 48 hrs by sulforhodamine B assay

[16] = test system: NCI-H23; assay: cells; settings: Homo sapiens, NCI-H23, 48 h, read-out: LC50
Description: Cytotoxicity activity against human NCI-H23 cells assessed as reduction in cell growth measured after 48 hrs by sulforhodamine B assay

[17] = test system: NCI-H322M; assay: cells; settings: Homo sapiens, 48 h, read-out: LC50
Description: Cytotoxicity activity against human NCI-H322M cells assessed as reduction in cell growth measured after 48 hrs by sulforhodamine B assay

[18] = test system: UO-31; assay: cells; type: functional; settings: Homo sapiens, time 48 hrs
Description: Cytostatic activity against human UO-31 cells assessed as total growth inhibition measured after 48 hrs by sulforhodamine B assay

[19] = test system: MOLT-4; assay: cells; type: functional; settings: Homo sapiens, time 48 hrs
Description: Cytostatic activity against human MOLT-4 cells assessed as total growth inhibition measured after 48 hrs by sulforhodamine B assay

[20] = test system: TK-10; assay: cells; type: functional; settings: Homo sapiens, time 48 hrs
Description: Cytostatic activity against human TK-10 cells assessed as total growth inhibition measured after 48 hrs by sulforhodamine B assay

[21] = test system: HOP-92; assay: cells; settings: Homo sapiens, HOP-92, 48 h, read-out: LC50
Description: Cytotoxicity activity against human HOP-92 cells assessed as reduction in cell growth measured after 48 hrs by sulforhodamine B assay

[22] = test system: MCF7; assay: cells; type: functional; settings: Homo sapiens, time 48 hrs
Description: Growth inhibition of human MCF7 cells measured after 48 hrs by sulforhodamine B assay

[23] = test system: MDA-MB-468; assay: cells; type: functional; settings: Homo sapiens, time 48 hrs
Description: Cytostatic activity against human MDA-MB-468 cells assessed as total growth inhibition measured after 48 hrs by sulforhodamine B assay

[24] = test system: T47D; assay: cells; type: functional; settings: Homo sapiens, time 48 hrs
Description: Growth inhibition of human T47D cells measured after 48 hrs by sulforhodamine B assay

[25] = test system: HL-60(TB); assay: cells; type: functional; settings: Homo sapiens, time 48 hrs
Description: Growth inhibition of human HL-60(TB) cells measured after 48 hrs by sulforhodamine B assay

[26] = test system: ACHN; assay: cells; type: functional; settings: Homo sapiens, time 48 hrs; remark: listed apart in the source
Description: Growth inhibition of human ACHN cells measured after 48 hrs by sulforhodamine B assay

[27] = test system: CAKI-1; assay: cells; type: functional; settings: Homo sapiens, time 48 hrs
Description: Cytostatic activity against human CAKI-1 cells assessed as total growth inhibition measured after 48 hrs by sulforhodamine B assay

[28] = test system: SNB-19; assay: cells; type: functional; settings: Homo sapiens, time 48 hrs
Description: Growth inhibition of human SNB-19 cells measured after 48 hrs by sulforhodamine B assay

[29] = test system: CCRF-CEM; assay: cells; type: functional; settings: Homo sapiens, time 48 hrs
Description: Cytostatic activity against human CCRF-CEM cells assessed as total growth inhibition measured after 48 hrs by sulforhodamine B assay

[30] = test system: UACC-257; assay: cells; type: functional; settings: Homo sapiens, time 48 hrs
Description: Cytostatic activity against human UACC-257 cells assessed as total growth inhibition measured after 48 hrs by sulforhodamine B assay

[31] = test system: SNB-75; assay: cells; settings: Homo sapiens, SNB-75, 48 h, read-out: LC50
Description: Cytotoxicity activity against human SNB-75 cells assessed as reduction in cell growth measured after 48 hrs by sulforhodamine B assay

[32] = test system: HCC 2998; assay: cells; type: functional; settings: Homo sapiens, time 48 hrs
Description: Growth inhibition of human HCC 2998 cells measured after 48 hrs by sulforhodamine B assay

[33] = test system: MDA-MB-468; assay: cells; type: functional; settings: Homo sapiens, time 48 hrs; remark: listed apart in the source
Description: Growth inhibition of human MDA-MB-468 cells measured after 48 hrs by sulforhodamine B assay

[34] = test system: SF-295; assay: cells; type: functional; settings: Homo sapiens, time 48 hrs
Description: Growth inhibition of human SF-295 cells measured after 48 hrs by sulforhodamine B assay

[35] = test system: SK-MEL-2; assay: cells; type: functional; settings: Homo sapiens, time 48 hrs
Description: Growth inhibition of human SK-MEL-2 cells measured after 48 hrs by sulforhodamine B assay

[36] = test system: A498; assay: cells; type: functional; settings: Homo sapiens, time 48 hrs
Description: Growth inhibition of human A498 cells measured after 48 hrs by sulforhodamine B assay

[37] = test system: CAKI-1; assay: cells; type: functional; settings: Homo sapiens, time 48 hrs; remark: listed apart in the source
Description: Growth inhibition of human CAKI-1 cells measured after 48 hrs by sulforhodamine B assay

[38] = test system: UO-31; assay: cells; settings: Homo sapiens, UO-31, 48 h, read-out: LC50
Description: Cytotoxicity activity against human UO-31 cells assessed as reduction in cell growth measured after 48 hrs by sulforhodamine B assay

[39] = test system: SK-MEL-5; assay: cells; settings: Homo sapiens, SK-MEL-5, 48 h, read-out: LC50
Description: Cytotoxicity activity against human SK-MEL-5 cells assessed as reduction in cell growth measured after 48 hrs by sulforhodamine B assay

[40] = test system: M14; assay: cells; type: functional; settings: Homo sapiens, time 48 hrs
Description: Cytostatic activity against human M14 cells assessed as total growth inhibition measured after 48 hrs by sulforhodamine B assay

[41] = test system: LOX IMVI; assay: cells; type: functional; settings: Homo sapiens, time 48 hrs; remark: listed apart in the source
Description: Cytostatic activity against human LOX IMVI cells assessed as total growth inhibition measured after 48 hrs by sulforhodamine B assay

[42] = test system: U-251; assay: cells; settings: Homo sapiens, U-251, 48 h, read-out: LC50
Description: Cytotoxicity activity against human U-251 cells assessed as reduction in cell growth measured after 48 hrs by sulforhodamine B assay

[43] = test system: U-251; assay: cells; type: functional; settings: Homo sapiens, time 48 hrs
Description: Cytostatic activity against human U-251 cells assessed as total growth inhibition measured after 48 hrs by sulforhodamine B assay

[44] = test system: NCI-H460; assay: cells; settings: Homo sapiens, NCI-H460, 48 h, read-out: LC50
Description: Cytotoxicity activity against human NCI-H460 cells assessed as reduction in cell growth measured after 48 hrs by sulforhodamine B assay

[45] = test system: M14; assay: cells; settings: Homo sapiens, M14, 48 h, read-out: LC50
Description: Cytotoxicity activity against human M14 cells assessed as reduction in cell growth measured after 48 hrs by sulforhodamine B assay

[46] = test system: OVCAR-3; assay: cells; type: functional; settings: Homo sapiens, time 48 hrs
Description: Growth inhibition of human OVCAR-3 cells measured after 48 hrs by sulforhodamine B assay

[47] = target: Carbonic anhydrase 12 (Homo sapiens, UniProt O43570)
Description: Inhibition of human carbonic anhydrase 12 preincubated for 15 mins followed by substrate addition and measured after 30 mins by spectrophotometric method

[48] = test system: 786-0; assay: cells; type: functional; settings: Homo sapiens, time 48 hrs
Description: Growth inhibition of human 786-0 cells measured after 48 hrs by sulforhodamine B assay

[49] = test system: A549; assay: cells; type: functional; settings: Homo sapiens, time 48 hrs
Description: Cytostatic activity against human A549 cells assessed as total growth inhibition measured after 48 hrs by sulforhodamine B assay

[50] = test system: SK-OV-3; assay: cells; type: functional; settings: Homo sapiens, time 48 hrs; remark: listed apart in the source
Description: Growth inhibition of human SK-OV-3 cells measured after 48 hrs by sulforhodamine B assay

[51] = test system: ACHN; assay: cells; settings: Homo sapiens, 48 h, read-out: LC50
Description: Cytotoxicity activity against human ACHN cells assessed as reduction in cell growth measured after 48 hrs by sulforhodamine B assay

Carbonic anhydrase 12, sequence (O43570 whole entry): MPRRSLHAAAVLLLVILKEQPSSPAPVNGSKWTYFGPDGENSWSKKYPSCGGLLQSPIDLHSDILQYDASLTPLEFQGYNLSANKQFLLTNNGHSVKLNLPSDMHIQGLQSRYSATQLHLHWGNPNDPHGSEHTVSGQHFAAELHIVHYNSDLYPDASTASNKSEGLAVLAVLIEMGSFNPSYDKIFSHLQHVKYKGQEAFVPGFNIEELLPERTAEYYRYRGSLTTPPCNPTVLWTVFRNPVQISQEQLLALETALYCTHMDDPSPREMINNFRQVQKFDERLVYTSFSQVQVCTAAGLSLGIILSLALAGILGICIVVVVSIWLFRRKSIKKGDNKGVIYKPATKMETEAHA

**Q.** Which TGI [1] does the source give for `CCOC(=O)c1ccc(N/N=C/c2cn(-c3ccc(S(N)(=O)=O)cc3)nc2-c2ccc(C)cc2)cc1` here?
**A.** Its TGI is 10.9 µM.

**Q.** What about the CC50 [2] of the same molecule?
**A.** The CC50 was 58 µM.

**Q.** What about the GI50 [3] of the same molecule?
**A.** The GI50 was 3.17 µM.

**Q.** And the TGI [4]?
**A.** Its TGI is over 100 µM.

**Q.** And the CC50 [5]?
**A.** Its CC50 is 10.6 µM.

**Q.** What about the TGI [6] of the same molecule?
**A.** Its TGI is 23.4 µM.

**Q.** What about the TGI [7] of the same molecule?
**A.** The TGI was 24.3 µM.

**Q.** And the TGI [8]?
**A.** The TGI was 44.3 µM.

**Q.** And the CC50 [9]?
**A.** The CC50 was over 100 µM.

**Q.** What about the CC50 [10] of the same molecule?
**A.** The CC50 was over 100 µM.

**Q.** And the CC50 [11]?
**A.** The CC50 was over 100 µM.

**Q.** What about the CC50 [12] of the same molecule?
**A.** Its CC50 is over 100 µM.

**Q.** And the TGI [13]?
**A.** Its TGI is 20 µM.

**Q.** And the GI50 [14]?
**A.** The GI50 was 2.97 µM.

**Q.** And the GI50 [15]?
**A.** The GI50 was 1.71 µM.

**Q.** What about the CC50 [16] of the same molecule?
**A.** Its CC50 is 94.5 µM.

**Q.** And the CC50 [17]?
**A.** Its CC50 is over 100 µM.

**Q.** What about the TGI [18] of the same molecule?
**A.** The TGI was 14.8 µM.

**Q.** What about the TGI [19] of the same molecule?
**A.** Its TGI is 11.5 µM.

**Q.** What about the TGI [20] of the same molecule?
**A.** The TGI was over 100 µM.

**Q.** And the CC50 [21]?
**A.** The CC50 was over 100 µM.

**Q.** What about the GI50 [22] of the same molecule?
**A.** The GI50 was 2.44 µM.

**Q.** And the TGI [23]?
**A.** Its TGI is 16 µM.

**Q.** What about the GI50 [24] of the same molecule?
**A.** Its GI50 is 3.89 µM.

**Q.** And the GI50 [25]?
**A.** The GI50 was 3.05 µM.

**Q.** And the GI50 [26]?
**A.** Its GI50 is 3.04 µM.

**Q.** And the TGI [27]?
**A.** Its TGI is 11.7 µM.

**Q.** What about the GI50 [28] of the same molecule?
**A.** Its GI50 is 4.1 µM.

**Q.** And the TGI [29]?
**A.** Its TGI is 57.4 µM.

**Q.** What about the TGI [30] of the same molecule?
**A.** Its TGI is 37 µM.

**Q.** What about the CC50 [31] of the same molecule?
**A.** Its CC50 is over 100 µM.

**Q.** And the GI50 [32]?
**A.** The GI50 was 2.05 µM.

**Q.** What about the GI50 [33] of the same molecule?
**A.** The GI50 was 3.51 µM.

**Q.** What about the GI50 [34] of the same molecule?
**A.** The GI50 was 6.92 µM.

**Q.** And the GI50 [35]?
**A.** The GI50 was 11.8 µM.

**Q.** What about the GI50 [36] of the same molecule?
**A.** The GI50 was 7.62 µM.

**Q.** What about the GI50 [37] of the same molecule?
**A.** Its GI50 is 2.07 µM.

**Q.** What about the CC50 [38] of the same molecule?
**A.** The CC50 was over 100 µM.

**Q.** What about the CC50 [39] of the same molecule?
**A.** Its CC50 is 40.2 µM.

**Q.** What about the TGI [40] of the same molecule?
**A.** The TGI was 3.57 µM.

**Q.** And the TGI [41]?
**A.** Its TGI is 3.15 µM.

**Q.** And the CC50 [42]?
**A.** Its CC50 is over 100 µM.

**Q.** And the TGI [43]?
**A.** Its TGI is over 100 µM.

**Q.** What about the CC50 [44] of the same molecule?
**A.** The CC50 was over 100 µM.

**Q.** And the CC50 [45]?
**A.** The CC50 was 7.31 µM.

**Q.** And the GI50 [46]?
**A.** Its GI50 is 2.57 µM.

**Q.** And the IC50 [47]?
**A.** The IC50 was 0.155 µM.

**Q.** And the GI50 [48]?
**A.** The GI50 was 2.42 µM.

**Q.** What about the TGI [49] of the same molecule?
**A.** The TGI was 4.07 µM.

**Q.** And the GI50 [50]?
**A.** Its GI50 is 24.4 µM.

**Q.** And the CC50 [51]?
**A.** Its CC50 is over 100 µM.

Reference: ChEMBL document CHEMBL5634115, “Exploring novel anticancer pyrazole benzenesulfonamides featuring tail approach strategy as carbonic anhydrase inhibitors” (Eur J Med Chem, 2023)
